Measured values: BindingDB's records for doi:10.1016/S0960-894X(00)80678-2 (1993)
Non-standard residues stand in square brackets, D forms with d. Residues, ends and D or L forms follow the SMILES beside them. *: point of attachment. 1Nal = N[C@@H](Cc1cccc2ccccc12)C(=O)O; Boc = CC(C)(C)OC(=O)*

Assays:
[1] = biological target: Gastrin/cholecystokinin type B receptor (Cavia porcellus); assay: Tested for the inhibition of [3H]pCCK-8 binding to Cholecystokinin type B receptor in guinea pig brain
[2] = biological target: Gastrin/cholecystokinin type B receptor (Cavia porcellus); assay: as above; remark: listed apart in the source

Ki [1]	Ki [2]	Structure (SMILES)
0.46 nM	–	CCCC[C@@H](NC(=O)CC(=O)N[C@@H](Cc1c[nH]c2ccccc12)C(=O)N(C)[C@@H](CCCC)C(=O)N[C@@H](CC(=O)O)C(=O)N[C@@H](Cc1ccccc1)C(N)=O)NC(=O)[C@H](Cc1ccc(CS(=O)(=O)O)cc1)NC(=O)OC(C)(C)C [Boc-Phe(CH2-SO3Na)-gNle-mCIy-Trp-(N-Me)Nle-Asp-Phe-NH2]
71 nM	–	CC(C)(C)OC(=O)N[C@@H](Cc1c[nH]c2ccccc12)C(=O)N[C@@H](Cc1ccccc1)C(=O)N[C@@H](CC(=O)O)C(=O)N[C@@H](Cc1cccc2ccccc12)C(N)=O [Boc-Trp-Phe-Asp-1Nal-NH2] (Boc-WFD[1Nal]-NH2)
–	0.15 nM	CCCC[C@@H](NC(=O)CC(=O)N[C@@H](Cc1c[nH]c2ccccc12)C(=O)N(C)[C@@H](CCCC)C(=O)N[C@@H](CC(=O)O)C(=O)N[C@@H](Cc1ccccc1)C(N)=O)NC(=O)[C@H](Cc1ccc(OS(=O)(=O)O)cc1)NC(=O)OC(C)(C)C [Boc-Tyr(SO3Na)-gNle-mGIy-Trp-(N-Me)Nle-Asp-Phe-NH2]
